Source: US7563791B2, “Pyrrolotriazine derivatives useful for treating hyper-proliferative disorders and diseases associated with angiogenesis” (Bayer Pharmaceuticals Corporation, priority 2004, dated 2009)

Assays:
Type in all cases: cell-based
[1] = test system: VEGFR stimulated HUVEC proliferation; assay: BRDU growth factor stimulated proliferation of HUVEC (VEGF stimulation); settings: Homo sapiens, 72 h, 80 ng/ml VEGF, 3 days, BrdU incorporation
Method: (§1) BRDU Growth Factor Stimulated Proliferation of HUVEC
(§2) Exponentially growing human umbilical vein endothelial cells (HUVEC; Cat# CC-2519A, Cambrex, Walkersville, Md.) were seeded at two thousand cells/well into Collagen IV-coated 96 well plates (Cat#35-4429, Becton Dickinson, Bedford, Mass.) in assay media containing RPMI-1640 (Cat#11875-093, Gibco, Carlsbad, Calif.), 0.5% charcoal-stripped serum (Cat# SH30068.03, HyClone, Logan, Utah), and 1% N-2 supplement (Cat#17502-048, Gibco, Carlsbad, Calif.). Fours hours after incubating the plates at 37° C. in 5% CO2, the cells were treated with different concentrations of compound (diluted in assay media with a final DMSO concentration=0.1%) and then were immediately stimulated with 80 ng/ml of vascular endothelial growth factor (VEGF, Cat#100-20, PeproTech, Rocky Hill, N.J.) or 1.5 ng/ml of basic fibroblast growth factor (bFGF, Catt#100-18B, PeproTech, Rocky Hill, N.J.). Treated cells were incubated for 3 days at 37° C. in 5% CO2. DNA synthesis was measured via the incorporation of bromodeoxyuridine (BrdU) into newly synthesized DNA using the Amersham Cell Proliferation BioTrack ELISA system (Cat# RPN250, Amersham, Piscataway, N.J.). Diluted BrdU solution (20 μl of stock BrdU diluted 1:20 fold into assay media) was added to each well and incubation proceeded for 6 hours at 37° C. in 5% CO2. The media was removed and the cells were fixed according to the specifications of the Amersham assay kit for 30 minutes at room temperature. After removing the fixative, blocking buffer (supplied by Amersham kit; 200 μl/well) was added and the plates were stored at 4° C. overnight. The blocking buffer was aspirated and peroxidase-labeled anti-BrdU antibody (supplied by Amersham kit; 100 μl/well) was added and incubated for 3 hours at room temperature. The plates were washed three times with wash buffer (supplied by Amersham kit; 300 μl/well/wash). Immediately following the washes, 100 μl of the TMB-substrate was dispensed into each well and the plates were further incubated for 30 minutes at room temperature. The reaction was terminated by the addition of 25 μl of 1M H2SO4. Plates were read immediately at 450 nm using a SpectraMAX 250 spectrophotometer plate reader (Molecular Devices, Sunnyvale, Calif.). The software utilized was SoftMAX pro v.2.4.1.

[2] = test system: FGFR stimulated HUVEC proliferation; assay: BRDU growth factor stimulated proliferation of HUVEC (bFGF stimulation); settings: Homo sapiens, 72 h, 1.5 ng/ml bFGF, 3 days, BrdU incorporation
Method: as §1, §2

[3] = test system: VEGF stimulated Phospho-ERK in HUVEC; assay: Growth factor stimulated p-ERK assay in HUVECs (VEGF stimulation, ERK1/2 Bioplex); settings: Homo sapiens, compound 2 hrs, then 50 ng/ml VEGF 10 min; for inhibition at 0.1 µM: @ 100 nM
Method: Growth Factor Stimulated p-ERK assay in HUVECs
Exponentially growing human endothelial HUVECs cells (human umbilical vein endothelial cells, cat# CC-2517, Cambrex, Walkersville, Md.) were seeded at twenty five thousand cells/well in 96 well plates in EBM-2 MV medium with growth factors (cat# CC-3202, Cambrex) and grown at 37° C. in 5% CO2. Sixteen hours post-plating, the cells were changed to serum-free medium (RPMI 1640 containing 0.1% BSA (bovine serum albumin) and compounds were added at different concentrations for 2 hrs, after which the cells were stimulated for 10 min with 50 ng/ml of either VEGF (vascular endothelial growth factor, Protein Sciences, Meriden, Conn.) or bFGF (basic fibroblast growth factor cat# PHG0026, Biosource International, Camarillo, Calif.). The rest of the assay was performed per manufacturer indications for the ERK½ Bioplex assay (cat#171-304004, Bio-Rad, Hercules, Calif.). After removing culture medium by aspiration, the cells were quickly rinsed with 100 μl of cell wash buffer A to stop treatment reaction. Eighty microliters of cell lysis buffer were then immediately added to each well of the 96 well plate which was put on ice. Cells in each well were lysed by pipetting up and down 5 times with a multi-channel pipet. The plate was then agitated on a microtiter plate shaker at 300 rpm for 20 min at 4° C. Cellular debris were pelleted by centrifugation at 4500 g for 15 min at 4° C. and the supernatant was collected. Forty five microliters of supernatant was diluted with an equal volume of Bio-Plex phosphoprotein assay Buffer B, The coupled and color coated beads were added into a 96 well filter plate, and the prepared lysates were added. The beads and lysate mixture was incubated at room temperature for 15-18 hrs. The following day, the plate was vacuum-filtered and then washed 3×. Twenty-five microliters of detection antibody solution were added to each well and the plate was then incubated for 30 min at room temperature. The plate was then vaccum-filtered and washed as described previously. Fifty microliters of streptavidin-PE solution was added to each well, the plate was incubated for 10 min at room temperature and then was then vaccum-filtered and washed as described above. One hundred twenty-five microliters of resuspension buffer was added to each well and data were acquired on the Luminex 100 instrument (Bio-Rad).

[4] = test system: HCT116 cells; assay: Tumor cell proliferation (Alamar Blue), HCT116; settings: Homo sapiens, HCT-116, 72 h
Method: (§3) Human tumor cells (e.g., HCT116 or MDA-MB-231 cells), are seeded in a Costar 96-well plate at 3.0×10^3 cells/well and grown in 150 μl of RPMI complete media (Invitrogen Corporation, Grand Island, N.Y.) containing 10% fetal bovine serum (Hyclone, Logan, Utah) at 37° C. for 16 h in an incubator with 5% CO2. To each well, 50 μl of additional growth media containing 40 μM to 18 nM concentrations of compound with 0.4% DMSO is added. Cells are grown for another 72 h at 37° C. with 5% CO2. 20 μl of Alamar Blue (Trek Diagnostic Systems, Inc., Cleveland, Ohio) reagent is added to each well and incubated for 3 h at 37° C. Plates are read in a SpectraMax Gemini (Molecular Devices, Calif.) with 544 nm excitation and 590 nm emission wavelength. IC50 values are determined by linear regression analysis of log drug concentration versus percent inhibition.

[5] = test system: MDA-MB-231 cells; assay: Tumor cell proliferation (Alamar Blue), MDA-MB-231; settings: Homo sapiens, MDA-MB-231, 72 h
Method: as §3

Row | Compound | IC50 [1] [µM] | IC50 [2] [nM] | inhibition at 0.1 µM [3] [%] | IC50 ([4]; bounds given in μM) [µM] | inhibition at 1 µM [3] [%] | IC50 [5] [µM] | IC50 ([5]; bounds given in μM) [µM] | IC50 [4] [µM] | IC50 ([1]; bound given in μM) [µM]
1 | Nc1ncnn2cc(CN3CCOCC3)c(-c3ccc(NC(=O)Nc4cc(C(F)(F)F)ccc4F)cc3)c12 [Example 30, N-{4-[4-amino-6-(morpholin-4-ylmethyl)pyrrolo[2,1-f][1,2,4]triazin-5-yl]phenyl}-N′-[2-fluoro-5-(trifluoromethyl)phenyl]urea] | 0.1 to 0.5 | 100 to 500 | > 50 | 1.5 to 5 | – | – | – | – | –
2 | Nc1ncnn2cc(C(=O)NCC(F)(F)F)c(-c3ccc(NC(=O)Nc4cc(C(F)(F)F)ccn4)cc3)c12 [Example 93, 4-amino-N-(2,2,2-trifluoroethyl)-5-{4-[({[4-(trifluoromethyl)pyridin-2-yl]amino}carbonyl)amino]phenyl}pyrrolo[2,1-f][1,2,4]triazine-6-carboxamide] | – | – | < 50 | – | > 50 | > 0.5 | < 1.5 | < 0.5 | –
3 | COCc1cn2ncnc(N)c2c1-c1ccc(NC(=O)Nc2cc(C(F)(F)F)ccc2F)cc1 [Example 100, N-{4-[4-amino-6-(methoxymethyl)pyrrolo[2,1-f][1,2,4]triazin-5-yl]phenyl}-N′-[2-fluoro-5-(trifluoromethyl)phenyl]urea] | > 0.5 | – | < 50 | 1.5 to 5 | > 50 | – | 1.5 to 5 | – | < 2
4 | COCc1cn2ncnc(N)c2c1-c1ccc(NC(=O)Nc2cc(C(F)(F)F)ccn2)cc1 [Example 101, N-{4-[4-amino-6-(methoxymethyl)pyrrolo[2,1-f][1,2,4]triazin-5-yl]phenyl}-N′-[4-(trifluoromethyl)pyridin-2-yl]urea] | < 0.01 | < 100 | – | – | – | – | – | – | –
5 | COCc1cn2ncnc(N)c2c1-c1ccc(NC(=O)Nc2cc(F)cc(C(F)(F)F)c2)cc1 [Example 102, N-{4-[4-amino-6-(methoxymethyl)pyrrolo[2,1-f][1,2,4]triazin-5-yl]phenyl}-N′-[3-fluoro-5-(trifluoromethyl)phenyl]urea] | 0.1 to 0.5 | 100 to 500 | – | 1.5 to 5 | – | – | 5 to 10 | – | –
6 | N#Cc1cn2ncnc(N)c2c1-c1ccc(NC(=O)Nc2cc(F)cc(C(F)(F)F)c2)cc1 [Example 103, N-[4-(4-amino-6-cyanopyrrolo[2,1-f][1,2,4]triazin-5-yl)phenyl]-N′-[3-fluoro-5-(trifluoromethyl)phenyl]urea] | 0.01 to 0.1 | < 100 | – | 5 to 10 | – | – | 5 to 10 | – | –
7 | N#Cc1cn2ncnc(N)c2c1-c1ccc(NC(=O)Nc2ccc(F)c(C(F)(F)F)c2)cc1 [Example 151, N-[4-(4-amino-6-cyanopyrrolo[2,1-f][1,2,4]triazin-5-yl)phenyl]-N′-[4-fluoro-3-(trifluoromethyl)phenyl]urea] | 0.01 to 0.1 | < 100 | – | – | – | – | – | – | –
8 | N#Cc1cn2ncnc(N)c2c1-c1ccc(NC(=O)Nc2cccc(OC(F)(F)F)c2)cc1 [Example 152, N-[4-(4-amino-6-cyanopyrrolo[2,1-f][1,2,4]triazin-5-yl)phenyl]-N′-[3-(trifluoromethoxy)phenyl]urea] | 0.1 to 0.5 | 100 to 500 | – | – | – | – | – | – | –
9 | Nc1ncnn2cc(-c3cnco3)c(-c3ccc(NC(=O)Nc4cc(C(F)(F)F)ccc4F)cc3)c12 [Example 155, N-{4-[4-amino-6-(1,3-oxazol-5-yl)pyrrolo[2,1-f][1,2,4]triazin-5-yl]phenyl}-N′-[2-fluoro-5-(trifluoromethyl)phenyl]urea] | 0.01 to 0.1 | 100 to 500 | – | – | – | < 0.5 | – | < 0.5 | –
10 | COCCOCc1cn2ncnc(N)c2c1-c1ccc(NC(=O)Nc2cc(C(F)(F)F)ccc2F)cc1 [Example 157, N-(4-{4-amino-6-[(2-methoxyethoxy)methyl]pyrrolo[2,1-f][1,2,4]triazin-5-yl}phenyl)-N′-[2-fluoro-5-(trifluoromethyl)phenyl]urea] | 0.01 to 0.1 | 100 to 500 | – | 1.5 to 5 | – | – | 1.5 to 5 | – | –
11 | Nc1ncnn2cc(-c3cnco3)c(-c3ccc(NC(=O)Nc4cc(F)cc(C(F)(F)F)c4)cc3)c12 [Example 159, N-{4-[4-amino-6-(1,3-oxazol-5-yl)pyrrolo[2,1-f][1,2,4]triazin-5-yl]phenyl}-N′-[3-fluoro-5-(trifluoromethyl)phenyl]urea] | 0.01 to 0.1 | 100 to 500 | – | < 1.5 | – | > 0.5 | < 1.5 | > 0.5 | –
12 | Nc1ncnn2cc(-c3nnco3)c(-c3ccc(NC(=O)Nc4cc(C(F)(F)F)ccc4F)cc3)c12 [Example 163, N-{4-[4-amino-6-(1,3,4-oxadiazol-2-yl)pyrrolo[2,1-f][1,2,4]triazin-5-yl]phenyl}-N′-[2-fluoro-5-(trifluoromethyl)phenyl]urea] | > 0.5 | – | – | 1.5 to 5 | – | – | 1.5 to 5 | – | < 2
13 | N#Cc1cn2ncnc(N)c2c1-c1ccc(NC(=O)Nc2cc(C(F)(F)F)ccc2F)c(F)c1 [Example 256, N-[4-(4-amino-6-cyanopyrrolo[2,1-f][1,2,4]triazin-5-yl)-2-fluorophenyl]-N′-[2-fluoro-5-(trifluoromethyl)phenyl]urea] | – | – | – | < 1.5 | – | > 0.5 | < 1.5 | > 0.5 | –
14 | Nc1ncnn2cc(-c3nc(CN4CCOCC4)co3)c(-c3ccc(NC(=O)Nc4cc(C(F)(F)F)ccc4F)cc3)c12 [Example 257, N-(4-{4-amino-6-[4-(morpholin-4-ylmethyl)-1,3-oxazol-2-yl]pyrrolo[2,1-f][1,2,4]triazin-5-yl}phenyl)-N′-[2-fluoro-5-(trifluoromethyl)phenyl]urea] | – | – | – | < 1.5 | – | > 0.5 | < 1.5 | > 0.5 | –
